Data: PubChem BioAssay AID1963830 (Molecular Pharmacology Branch, DTP, NCI, 2024)

Tested on: 922993-354-T-J3-PDC complex spheroid viability
Assay: Anticancer human tumor 922993-354-T-J3-PDC patient-derived endometrial carcinoma cell line growth inhibition [POLQ]
Conditions: for IC50: curve of first compound; for viability, T/C: stronger effect = lower value
How it was run: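 Three-cell-type spheroids modelling solid tumor plus stroma served as the readout system; POL inhibitors were tested individually and in combination, concentration ranges set by clinical Cmax where known.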

[1] = second compound 0.0316 µM, first compound 0.0316 µM
[2] = second compound 0.0316 µM, first compound 0.1 µM
[3] = second compound 0.0316 µM, first compound 0.316 µM
[4] = second compound 0.0316 µM, first compound 1 µM
[5] = second compound 0.0316 µM, first compound 3.16 µM
[6] = second compound 0.0316 µM, first compound 10 µM
[7] = second compound 0.1 µM, first compound 0.0316 µM
[8] = second compound 0.1 µM, first compound 0.1 µM
[9] = second compound 0.1 µM, first compound 0.316 µM
[10] = second compound 0.1 µM, first compound 1 µM
[11] = second compound 0.1 µM, first compound 3.16 µM
[12] = second compound 0.1 µM, first compound 10 µM
[13] = second compound 0.316 µM, first compound 0.0316 µM
[14] = second compound 0.316 µM, first compound 0.1 µM
[15] = second compound 0.316 µM, first compound 0.316 µM
[16] = second compound 0.316 µM, first compound 1 µM
[17] = second compound 0.316 µM, first compound 3.16 µM
[18] = second compound 0.316 µM, first compound 10 µM
[19] = second compound 1 µM, first compound 0.0316 µM
[20] = second compound 1 µM, first compound 0.1 µM
[21] = second compound 1 µM, first compound 0.316 µM
[22] = second compound 1 µM, first compound 1 µM
[23] = second compound 1 µM, first compound 3.16 µM
[24] = second compound 1 µM, first compound 10 µM
[25] = second compound 3.16 µM, first compound 0.0316 µM
[26] = second compound 3.16 µM, first compound 0.1 µM
[27] = second compound 3.16 µM, first compound 0.316 µM
[28] = second compound 3.16 µM, first compound 1 µM
[29] = second compound 3.16 µM, first compound 3.16 µM
[30] = second compound 3.16 µM, first compound 10 µM
[31] = second compound 10 µM, first compound 0.0316 µM
[32] = second compound 10 µM, first compound 0.1 µM
[33] = second compound 10 µM, first compound 0.316 µM
[34] = second compound 10 µM, first compound 1 µM
[35] = second compound 10 µM, first compound 3.16 µM
[36] = second compound 10 µM, first compound 10 µM
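Further: spheroids exposed to the agents for one week.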
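Wherever viability, T/C is given: 100% = DMSO vehicle control wells.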

Compound: CC1COCCN1c1cc(C2(S(C)(=N)=O)CC2)nc(-c2ccnc3[nH]ccc23)n1 (stereo not drawn) + COC1C(OC(N)=O)C(O)C(Oc2ccc3c(O)c(NC(=O)c4ccc(O)c(CC=C(C)C)c4)c(=O)oc3c2C)OC1(C)C
- IC50 (second compound 0.0316 µM): 9.95 µM
- IC50 (second compound 0.1 µM): 7.81 µM
- IC50 (second compound 0.316 µM): > 10 µM
- IC50 (second compound 1 µM): > 10 µM
- IC50 (second compound 3.16 µM): 8.35 µM
- IC50 (second compound 10 µM): 8.17 µM
- viability, T/C [1]: 94.7%
- viability, T/C [2]: 94.6%
- viability, T/C [3]: 108%
- viability, T/C [4]: 105%
- viability, T/C [5]: 80.4%
- viability, T/C [6]: 49.8%
- viability, T/C [7]: 105%
- viability, T/C [8]: 92.2%
- viability, T/C [9]: 95.6%
- viability, T/C [10]: 93.2%
- viability, T/C [11]: 80.2%
- viability, T/C [12]: 41.5%
- viability, T/C [13]: 81.1%
- viability, T/C [14]: 105%
- viability, T/C [15]: 106%
- viability, T/C [16]: 101%
- viability, T/C [17]: 87.2%
- viability, T/C [18]: 52.5%
- viability, T/C [19]: 102%
- viability, T/C [20]: 101%
- viability, T/C [21]: 92.5%
- viability, T/C [22]: 88.6%
- viability, T/C [23]: 72.6%
- viability, T/C [24]: 52.8%
- viability, T/C [25]: 91.8%
- viability, T/C [26]: 103%
- viability, T/C [27]: 103%
- viability, T/C [28]: 85.7%
- viability, T/C [29]: 77%
- viability, T/C [30]: 44.9%
- viability, T/C [31]: 89.1%
- viability, T/C [32]: 84.7%
- viability, T/C [33]: 96%
- viability, T/C [34]: 84.2%
- viability, T/C [35]: 64.7%
- viability, T/C [36]: 46.9%

Compound: CCCS(=O)(=O)Nc1ccc(F)c(C(=O)c2c[nH]c3ncc(-c4ccc(Cl)cc4)cc23)c1F + COC1C(OC(N)=O)C(O)C(Oc2ccc3c(O)c(NC(=O)c4ccc(O)c(CC=C(C)C)c4)c(=O)oc3c2C)OC1(C)C
- IC50 (second compound 0.0316 µM): > 10 µM
- IC50 (second compound 0.1 µM): > 10 µM
- IC50 (second compound 0.316 µM): > 10 µM
- IC50 (second compound 1 µM): > 10 µM
- IC50 (second compound 3.16 µM): > 10 µM
- IC50 (second compound 10 µM): > 10 µM
- viability, T/C [1]: 98.7%
- viability, T/C [2]: 97%
- viability, T/C [3]: 97.3%
- viability, T/C [4]: 110%
- viability, T/C [5]: 106%
- viability, T/C [6]: 68.6%
- viability, T/C [7]: 102%
- viability, T/C [8]: 103%
- viability, T/C [9]: 103%
- viability, T/C [10]: 110%
- viability, T/C [11]: 102%
- viability, T/C [12]: 83.6%
- viability, T/C [13]: 112%
- viability, T/C [14]: 102%
- viability, T/C [15]: 107%
- viability, T/C [16]: 109%
- viability, T/C [17]: 93%
- viability, T/C [18]: 67.1%
- viability, T/C [19]: 93.6%
- viability, T/C [20]: 103%
- viability, T/C [21]: 101%
- viability, T/C [22]: 103%
- viability, T/C [23]: 90.5%
- viability, T/C [24]: 86.8%
- viability, T/C [25]: 94.7%
- viability, T/C [26]: 103%
- viability, T/C [27]: 95.9%
- viability, T/C [28]: 94.1%
- viability, T/C [29]: 101%
- viability, T/C [30]: 73.8%
- viability, T/C [31]: 90%
- viability, T/C [32]: 84.3%
- viability, T/C [33]: 79.8%
- viability, T/C [34]: 85.1%
- viability, T/C [35]: 90.4%
- viability, T/C [36]: 59.5%

Compound: CNCc1ccc(-c2[nH]c3cc(F)cc4c3c2CCNC4=O)cc1 + COC1C(OC(N)=O)C(O)C(Oc2ccc3c(O)c(NC(=O)c4ccc(O)c(CC=C(C)C)c4)c(=O)oc3c2C)OC1(C)C
- IC50 (second compound 0.0316 µM): > 10 µM
- IC50 (second compound 0.1 µM): > 10 µM
- IC50 (second compound 0.316 µM): > 10 µM
- IC50 (second compound 1 µM): > 10 µM
- IC50 (second compound 3.16 µM): > 10 µM
- IC50 (second compound 10 µM): > 10 µM
- viability, T/C [1]: 104%
- viability, T/C [2]: 100%
- viability, T/C [3]: 98.3%
- viability, T/C [4]: 109%
- viability, T/C [5]: 105%
- viability, T/C [6]: 85.4%
- viability, T/C [7]: 107%
- viability, T/C [8]: 106%
- viability, T/C [9]: 94.3%
- viability, T/C [10]: 90%
- viability, T/C [11]: 91.5%
- viability, T/C [12]: 78.6%
- viability, T/C [13]: 102%
- viability, T/C [14]: 103%
- viability, T/C [15]: 108%
- viability, T/C [16]: 90.3%
- viability, T/C [17]: 85.8%
- viability, T/C [18]: 81.3%
- viability, T/C [19]: 102%
- viability, T/C [20]: 101%
- viability, T/C [21]: 98.2%
- viability, T/C [22]: 107%
- viability, T/C [23]: 89%
- viability, T/C [24]: 77.4%
- viability, T/C [25]: 95.5%
- viability, T/C [26]: 89.9%
- viability, T/C [27]: 86.6%
- viability, T/C [28]: 79%
- viability, T/C [29]: 108%
- viability, T/C [30]: 70.1%
- viability, T/C [31]: 95.4%
- viability, T/C [32]: 80.8%
- viability, T/C [33]: 80.9%
- viability, T/C [34]: 73.1%
- viability, T/C [35]: 86.7%
- viability, T/C [36]: 78.8%

Compound: Cn1ncnc1[C@H]1c2n[nH]c(=O)c3cc(F)cc(c23)N[C@@H]1c1ccc(F)cc1 + COC1C(OC(N)=O)C(O)C(Oc2ccc3c(O)c(NC(=O)c4ccc(O)c(CC=C(C)C)c4)c(=O)oc3c2C)OC1(C)C
- IC50 (second compound 0.0316 µM): > 0.1 µM
- IC50 (second compound 0.1 µM): > 0.1 µM
- IC50 (second compound 0.316 µM): > 0.1 µM
- IC50 (second compound 1 µM): > 0.1 µM
- IC50 (second compound 3.16 µM): > 0.1 µM
- IC50 (second compound 10 µM): > 0.1 µM
- viability, T/C (second compound 0.0316 µM, first compound 0.000316 µM): 109%
- viability, T/C (second compound 0.0316 µM, first compound 0.001 µM): 93.7%
- viability, T/C (second compound 0.0316 µM, first compound 0.00316 µM): 98.5%
- viability, T/C (second compound 0.0316 µM, first compound 0.01 µM): 104%
- viability, T/C [1]: 91.8%
- viability, T/C [2]: 74%
- viability, T/C (second compound 0.1 µM, first compound 0.000316 µM): 107%
- viability, T/C (second compound 0.1 µM, first compound 0.001 µM): 102%
- viability, T/C (second compound 0.1 µM, first compound 0.00316 µM): 105%
- viability, T/C (second compound 0.1 µM, first compound 0.01 µM): 99.9%
- viability, T/C [7]: 96.8%
- viability, T/C [8]: 79.8%
- viability, T/C (second compound 0.316 µM, first compound 0.000316 µM): 108%
- viability, T/C (second compound 0.316 µM, first compound 0.001 µM): 107%
- viability, T/C (second compound 0.316 µM, first compound 0.00316 µM): 115%
- viability, T/C (second compound 0.316 µM, first compound 0.01 µM): 98%
- viability, T/C [13]: 96.6%
- viability, T/C [14]: 86.1%
- viability, T/C (second compound 1 µM, first compound 0.000316 µM): 105%
- viability, T/C (second compound 1 µM, first compound 0.001 µM): 98.6%
- viability, T/C (second compound 1 µM, first compound 0.00316 µM): 91.7%
- viability, T/C (second compound 1 µM, first compound 0.01 µM): 105%
- viability, T/C [19]: 94.6%
- viability, T/C [20]: 84.5%
- viability, T/C (second compound 3.16 µM, first compound 0.000316 µM): 93.7%
- viability, T/C (second compound 3.16 µM, first compound 0.001 µM): 89.9%
- viability, T/C (second compound 3.16 µM, first compound 0.00316 µM): 89.6%
- viability, T/C (second compound 3.16 µM, first compound 0.01 µM): 86.3%
- viability, T/C [25]: 102%
- viability, T/C [26]: 79.4%
- viability, T/C (second compound 10 µM, first compound 0.000316 µM): 88.6%
- viability, T/C (second compound 10 µM, first compound 0.001 µM): 75.6%
- viability, T/C (second compound 10 µM, first compound 0.00316 µM): 94.7%
- viability, T/C (second compound 10 µM, first compound 0.01 µM): 85.7%
- viability, T/C [31]: 87.1%
- viability, T/C [32]: 70.7%
